Key:
[1] = molecular target: T1, Steroid 17-alpha-hydroxylase/17,20 lyase (Homo sapiens, UniProt P05093)
T1 sequence (P05093 whole entry): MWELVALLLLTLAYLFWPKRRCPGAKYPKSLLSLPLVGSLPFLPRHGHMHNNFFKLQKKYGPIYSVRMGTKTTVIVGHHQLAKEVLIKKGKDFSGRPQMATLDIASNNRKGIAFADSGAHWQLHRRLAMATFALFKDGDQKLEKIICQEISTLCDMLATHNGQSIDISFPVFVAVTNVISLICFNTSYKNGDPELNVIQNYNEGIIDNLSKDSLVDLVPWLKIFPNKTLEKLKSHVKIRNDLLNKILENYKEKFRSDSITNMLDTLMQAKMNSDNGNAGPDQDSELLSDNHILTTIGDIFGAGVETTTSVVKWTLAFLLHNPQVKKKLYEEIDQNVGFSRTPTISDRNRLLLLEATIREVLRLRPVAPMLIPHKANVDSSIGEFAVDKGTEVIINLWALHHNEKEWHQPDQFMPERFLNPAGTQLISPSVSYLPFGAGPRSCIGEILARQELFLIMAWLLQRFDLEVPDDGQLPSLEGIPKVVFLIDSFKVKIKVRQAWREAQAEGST

[2] = molecular target: T2, Aromatase (Homo sapiens, UniProt P11511)
T2 sequence (P11511 whole entry): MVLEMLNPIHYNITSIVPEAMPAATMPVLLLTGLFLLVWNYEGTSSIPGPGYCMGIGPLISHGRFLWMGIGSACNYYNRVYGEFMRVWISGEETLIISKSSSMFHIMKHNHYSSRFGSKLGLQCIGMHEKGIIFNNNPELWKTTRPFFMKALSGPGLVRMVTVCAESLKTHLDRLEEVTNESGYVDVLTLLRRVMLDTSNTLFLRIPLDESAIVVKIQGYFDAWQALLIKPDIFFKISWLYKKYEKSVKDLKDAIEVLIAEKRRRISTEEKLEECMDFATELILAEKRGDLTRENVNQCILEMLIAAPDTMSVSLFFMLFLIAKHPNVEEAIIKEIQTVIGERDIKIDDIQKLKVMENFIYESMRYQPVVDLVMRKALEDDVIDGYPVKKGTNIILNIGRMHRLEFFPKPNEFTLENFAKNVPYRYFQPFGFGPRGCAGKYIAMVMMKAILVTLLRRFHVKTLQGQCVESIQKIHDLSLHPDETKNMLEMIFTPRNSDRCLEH

[3] = molecular target: T1, Steroid 17-alpha-hydroxylase/17,20 lyase; remark: listed apart in the source
[4] = species: Homo sapiens

SMILES	inhibition at 2.5 µM [1] [%]	inhibition at 25 µM [2] [%]	IC50 [3] [nM]	Km [4] [µM]
O=c1ccoc2c(Cn3ccnc3)ccc(Br)c12	26			
COc1ccc2c(=O)c(Cn3cnnc3)c(-c3ccccc3)oc2c1	14	21		
O=c1c2ccccc2oc2cc(Cn3ccnc3)ccc12	33			
O=c1ccoc2c(Cn3ccnc3)ccc([N+](=O)[O-])c12	5			
N#Cc1ccc(Cn2ccnc2)c2occc(=O)c12	3			
O=c1ccoc2cc(Cn3ccnc3)ccc12	9			
O=c1ccoc2cc(Cn3cnnc3)ccc12	5			
O=c1c2ccccc2oc2cc(Cn3cnnc3)ccc12	8	27		
COc1ccc2c(=O)c(Cn3ccnc3)c(-c3ccccc3)oc2c1	44			
O=c1c2ccccc2oc2c([N+](=O)[O-])ccc(Cn3ccnc3)c12	94		130	

Continued, values first:

inhibition at 2.5 µM [1] [%]	inhibition at 25 µM [2] [%]	IC50 [3] [nM]	Km [4] [µM]	SMILES
38				O=c1c2ccccc2oc2c(Cn3ccnc3)ccc(Br)c12
14				N#Cc1ccc(Cn2ccnc2)c2oc3ccccc3c(=O)c12
92		220		N#Cc1ccc(Cn2ccnc2)c2c(=O)c3ccccc3oc12
98		42		O=c1c2ccccc2oc2c(Br)ccc(Cn3ccnc3)c12
4			0.0651	O=c1c2ccccc2oc2c(Cn3ccnc3)ccc([N+](=O)[O-])c12

From ChEMBL document CHEMBL1134355 (J Med Chem, 2001)
